Test results from patent US20260070895A1, “CRYSTALLINE FORMS” (QUIMATRYX, S.L., priority 2022, published 2026).
Entries after “also recorded” stand apart in the source; their conditions may differ.

Legend:
Type in all cases: physicochemical
[1] = Photostability at solid state (chemical purity by HPLC after illumination); conditions: for HPLC peak area, QTX125 RRT 1.00 / HPLC peak area, RRT 1.04 / HPLC peak area, RRT 1.12 / degradation (in words) / colour change of the solid material: solid-state; for degradation (in words): up to 171 hours
Procedure: (§1) The method for determining purity by HPLC—used throughout these examples—used the following parameters:
(§2) The photostability of novel crystalline forms of QTX125 was assessed at solid state and in solution. Where ‘forced illumination’ conditions were used, samples were illuminated at 12 Klux/hour and 2.8 UV W/m^2/hour. Samples were stored at a temperature of 30° C. Following incubation, the chemical purity of QTX125 was measured by HPLC.
(§3) The following index is provided to aid navigation of the data presented in Tables 3.1.1 to 3.3.6: • 3.1.x—Assessment of the photostability of QTX125 Form 2. • 3.2.x—Assessment of the photostability of amorphous QTX125. • 3.3.x—Assessment of the photostability of the QTX125 1:2 L-Lysine adduct. • 3.x.1—Samples (at solid state) stored in unsealed clear glass bottles, subject to forced illumination. • 3.x.2—Samples (at solid state) sealed under nitrogen in clear glass bottles, subject to forced illumination. • 3.x.3—Samples (at solid state) sealed under nitrogen in amber glass bottles, illuminated under ambient laboratory conditions • 3.x.4—Samples (at solid state) sealed under nitrogen in amber glass bottles, subject to forced illumination. • 3.x.5—Samples (in solution) sealed under nitrogen in amber glass bottles, illuminated under ambient laboratory conditions. • 3.x.6—Samples (in solution) sealed under nitrogen in amber glass bottles, subject to forced illumination.

[2] = Photostability in solution (THF and water), HPLC; conditions: for HPLC peak area, QTX125 RRT 1.00 / HPLC peak area, RRT 1.04 / HPLC peak area, RRT 1.12 / degradation (in words): in solution (THF and water), sealed under nitrogen in amber glass bottles; for degradation (in words): up to 171 hours
Procedure: as §1, §2, §3

[3] = Aqueous solubility at 37° C. (HPLC of filtered suspension); conditions: for peak solubility: at 1 hour
Procedure: The solubility of novel crystalline forms of QTX125 was assessed in the following aqueous solutions: (i) phosphate buffer, pH 3.5, 0.9% w/v sodium chloride; (ii) phosphate buffer, pH 6.5, 0.9% w/v sodium chloride; (iii) acetate buffer, pH 4.5, 0.9% w/v sodium chloride; (iv) citro-phosphate buffer, pH 4.5, 0.9% w/v sodium chloride; (v) sodium chloride, 0.9% w/v and (vi) deionised water. All assays were completed at 37° C.
In brief, 30 mg QTX125 was dispensed into vessels followed by 5 mL of the appropriate aqueous buffer. Mixtures were suspended by agitation and heated to 37° C. At various fixed intervals, an 0.4 mL aliquot of the suspension was removed, filtered and diluted for examination by HPLC. A single HPLC reference sample was used.

[4] = sealed under nitrogen in amber glass bottles, ambient laboratory conditions, 0 hours
[5] = sealed under nitrogen in amber glass bottles, ambient laboratory conditions, 3 hours
[6] = sealed under nitrogen in amber glass bottles, ambient laboratory conditions, 50 hours
[7] = sealed under nitrogen in amber glass bottles, ambient laboratory conditions, 171 hours
[8] = sealed under nitrogen in amber glass bottles, forced illumination, 171 hours
[9] = sealed under nitrogen in clear glass bottles, forced illumination
[10] = sealed under nitrogen in clear glass bottles, forced illumination, 0 hours
[11] = sealed under nitrogen in clear glass bottles, forced illumination, 3 hours
[12] = sealed under nitrogen in clear glass bottles, forced illumination, 50 hours
[13] = sealed under nitrogen in clear glass bottles, forced illumination, 171 hours
[14] = unsealed clear glass bottles, forced illumination
[15] = unsealed clear glass bottles, forced illumination, 0 hours
[16] = unsealed clear glass bottles, forced illumination, 3 hours
[17] = unsealed clear glass bottles, forced illumination, 50 hours
[18] = unsealed clear glass bottles, forced illumination, 171 hours
[19] = ambient laboratory conditions, 171 hours

NCCCC[C@H](N)C(=O)O.NCCCC[C@H](N)C(=O)O.O=C(NO)c1ccc(CNC(=O)c2[nH]c(-c3ccc(O)cc3)cc2-c2ccoc2)cc1 [QTX125 1:2 L-Lysine adduct]
photostability as compared to amorphous QTX125 ([1]; at solid state): enhanced photostability; also recorded: improved photostability
HPLC peak area, QTX125 RRT 1.00 [1, 4]: 96.83%
HPLC peak area, RRT 1.04 [1, 4]: 1.15%
HPLC peak area, QTX125 RRT 1.00 [1, 5]: 96.82%
HPLC peak area, RRT 1.04 [1, 5]: 1.21%
HPLC peak area, QTX125 RRT 1.00 [1, 6]: 97.84%
HPLC peak area, RRT 1.04 [1, 6]: 0.58%
HPLC peak area, QTX125 RRT 1.00 [1, 7]: 97.29%
HPLC peak area, RRT 1.04 [1, 7]: 1.30%
HPLC peak area, RRT 1.12 [1, 7]: 0.35%
degradation (in words) ([1]; sealed under nitrogen in amber glass bottles, ambient laboratory conditions): little evidence of degradation
HPLC peak area, QTX125 RRT 1.00 [1, 8]: 96.27%
HPLC peak area, RRT 1.04 [1, 8]: 1.74%
HPLC peak area, RRT 1.12 [1, 8]: 0.59%
degradation (in words) ([1]; sealed under nitrogen in amber glass bottles, forced illumination): degrades slightly
colour change of the solid material [1, 9]: A change in the colour of the solid material was not identified
HPLC peak area, QTX125 RRT 1.00 [1, 10]: 96.83%
HPLC peak area, RRT 1.04 [1, 10]: 1.15%
HPLC peak area, QTX125 RRT 1.00 [1, 11]: 95.57%
HPLC peak area, RRT 1.04 [1, 11]: 1.90%
HPLC peak area, RRT 1.12 [1, 11]: 0.65%
HPLC peak area, QTX125 RRT 1.00 [1, 12]: 89.67%
HPLC peak area, RRT 1.04 [1, 12]: 5.79%
HPLC peak area, RRT 1.12 [1, 12]: 2.74%
HPLC peak area, QTX125 RRT 1.00 [1, 13]: 85.21%
HPLC peak area, RRT 1.04 [1, 13]: 9.04%
HPLC peak area, RRT 1.12 [1, 13]: 3.94%
degradation (in words) [1, 9]: degrades under forced illumination to two principal components
colour change of the solid material [1, 14]: A change in the colour of the solid material was not identified
HPLC peak area, QTX125 RRT 1.00 [1, 15]: 96.83%
HPLC peak area, RRT 1.04 [1, 15]: 1.15%
HPLC peak area, QTX125 RRT 1.00 [1, 16]: 95.51%
HPLC peak area, RRT 1.04 [1, 16]: 1.98%
HPLC peak area, QTX125 RRT 1.00 [1, 17]: 88.96%
HPLC peak area, RRT 1.04 [1, 17]: 6.16%
HPLC peak area, RRT 1.12 [1, 17]: 3.08%
HPLC peak area, QTX125 RRT 1.00 [1, 18]: 84.14%
HPLC peak area, RRT 1.04 [1, 18]: 9.20%
HPLC peak area, RRT 1.12 [1, 18]: 4.38%
degradation (in words) [1, 14]: degrades under forced illumination to two principal components
HPLC peak area, QTX125 RRT 1.00 [2, 19]: 93.18%
HPLC peak area, RRT 1.04 [2, 19]: 1.50%
HPLC peak area, RRT 1.12 [2, 19]: 0.97%
degradation (in words) ([2]; ambient laboratory conditions): degrades
HPLC peak area, QTX125 RRT 1.00 ([2]; forced illumination, 0 hours): 96.83%
HPLC peak area, RRT 1.04 ([2]; forced illumination, 0 hours): 1.15%
HPLC peak area, QTX125 RRT 1.00 ([2]; forced illumination, 3 hours): 98.01%
HPLC peak area, RRT 1.04 ([2]; forced illumination, 3 hours): 0.71%
HPLC peak area, RRT 1.12 ([2]; forced illumination, 3 hours): 0.33%
HPLC peak area, QTX125 RRT 1.00 ([2]; forced illumination, 50 hours): 84.17%
HPLC peak area, RRT 1.04 ([2]; forced illumination, 50 hours): 1.03%
HPLC peak area, RRT 1.12 ([2]; forced illumination, 50 hours): 2.14%
HPLC peak area, QTX125 RRT 1.00 ([2]; forced illumination, 171 hours): 89.96%
HPLC peak area, RRT 1.04 ([2]; forced illumination, 171 hours): 2.82%
HPLC peak area, RRT 1.12 ([2]; forced illumination, 171 hours): 1.17%
degradation (in words) ([2]; forced illumination): degrades
photostability as compared to amorphous QTX125 and Form 2 ([2]; in solution, amber glass bottles, ambient laboratory conditions, 171 hours): enhanced photostability
photostability as compared to amorphous QTX125 or Form 2 ([2]; in solution, amber glass bottles, forced illumination, 171 hours): enhanced photostability
photostability as compared to both QTX125 Form 2 and amorphous QTX125 ([2]; stored in solution (conclusion)): improved photostability
solubility in a saline solution compared to other forms, including an amorphous form [3]: more soluble
PXRD analysis of the solid recovered at 24 hours ([3]; aqueous buffer, 37° C.): identified the precipitating entity as Form 2
concentration of QTX125 (solubility) ([3]; buffer (i) phosphate buffer, pH 3.5, 0.9% w/v sodium chloride, 37° C., 1 hour): 0.28 µg/mL
concentration of QTX125 (solubility) ([3]; buffer (i) phosphate buffer, pH 3.5, 0.9% w/v sodium chloride, 37° C., 4 hours): 0.33 µg/mL
concentration of QTX125 (solubility) ([3]; buffer (i) phosphate buffer, pH 3.5, 0.9% w/v sodium chloride, 37° C., 7 hours): 0.23 µg/mL
concentration of QTX125 (solubility) ([3]; buffer (i) phosphate buffer, pH 3.5, 0.9% w/v sodium chloride, 37° C., 24 hours): 0.34 µg/mL
concentration of QTX125 (solubility) ([3]; buffer (ii) phosphate buffer, pH 6.5, 0.9% w/v sodium chloride, 37° C., 1 hour): 0.32 µg/mL
concentration of QTX125 (solubility) ([3]; buffer (ii) phosphate buffer, pH 6.5, 0.9% w/v sodium chloride, 37° C., 4 hours): 0.24 µg/mL
concentration of QTX125 (solubility) ([3]; buffer (ii) phosphate buffer, pH 6.5, 0.9% w/v sodium chloride, 37° C., 7 hours): 0.39 µg/mL
concentration of QTX125 (solubility) ([3]; buffer (ii) phosphate buffer, pH 6.5, 0.9% w/v sodium chloride, 37° C., 24 hours): 0.28 µg/mL
concentration of QTX125 (solubility) ([3]; buffer (iii) acetate buffer, pH 4.5, 0.9% w/v sodium chloride, 37° C., 1 hour): 0.25 µg/mL
concentration of QTX125 (solubility) ([3]; buffer (iii) acetate buffer, pH 4.5, 0.9% w/v sodium chloride, 37° C., 4 hours): 0.35 µg/mL
concentration of QTX125 (solubility) ([3]; buffer (iii) acetate buffer, pH 4.5, 0.9% w/v sodium chloride, 37° C., 7 hours): 0.35 µg/mL
concentration of QTX125 (solubility) ([3]; buffer (iii) acetate buffer, pH 4.5, 0.9% w/v sodium chloride, 37° C., 24 hours): 0.33 µg/mL
concentration of QTX125 (solubility) ([3]; buffer (iv) citro-phosphate buffer, pH 4.5, 0.9% w/v sodium chloride, 37° C., 1 hour): 0.33 µg/mL
concentration of QTX125 (solubility) ([3]; buffer (iv) citro-phosphate buffer, pH 4.5, 0.9% w/v sodium chloride, 37° C., 4 hours): 0.29 µg/mL
concentration of QTX125 (solubility) ([3]; buffer (iv) citro-phosphate buffer, pH 4.5, 0.9% w/v sodium chloride, 37° C., 7 hours): 0.37 µg/mL
concentration of QTX125 (solubility) ([3]; buffer (iv) citro-phosphate buffer, pH 4.5, 0.9% w/v sodium chloride, 37° C., 24 hours): 0.27 µg/mL
concentration of QTX125 (solubility) ([3]; buffer (v) sodium chloride, 0.9% w/v, 37° C., 1 hour): 29.81 µg/mL
concentration of QTX125 (solubility) ([3]; buffer (v) sodium chloride, 0.9% w/v, 37° C., 4 hours): 16.91 µg/mL
concentration of QTX125 (solubility) ([3]; buffer (v) sodium chloride, 0.9% w/v, 37° C., 7 hours): 8.51 µg/mL
concentration of QTX125 (solubility) ([3]; buffer (v) sodium chloride, 0.9% w/v, 37° C., 24 hours): 4.52 µg/mL
concentration of QTX125 (solubility) ([3]; buffer (vi) deionised water, 37° C., 1 hour): 24.5 µg/mL
concentration of QTX125 (solubility) ([3]; buffer (vi) deionised water, 37° C., 4 hours): 16.22 µg/mL
concentration of QTX125 (solubility) ([3]; buffer (vi) deionised water, 37° C., 7 hours): 10.14 µg/mL
concentration of QTX125 (solubility) ([3]; buffer (vi) deionised water, 37° C., 24 hours): 7.76 µg/mL
solubility (in words) ([3]; buffers (i) to (iv), 37° C.): very low
peak solubility ([3]; deionised water (buffer vi), 37° C., listed as 1:2 L-Lysine adduct): 24.5 µg/mL
peak solubility ([3]; deionised water (buffer vi), 37° C., listed as adduct): 24.5 µg/mL
peak solubility ([3]; sodium chloride 0.9% w/v (buffer v), 37° C., listed as 1:2 L-Lysine adduct): 29.81 µg/mL
peak solubility ([3]; sodium chloride 0.9% w/v (buffer v), 37° C., listed as adduct): 29.81 µg/mL
